Laboratory results reported in patent US10882826B2, “Quinolinone or quinazolinone comprising antibiofilm compositions, compounds and methods and uses relating thereto” (University College Cork—National University of Ireland, priority 2015, dated 2021).

What was measured:
[1] = tested on: C. albicans strain SC5314 biofilm; assay: XTT metabolic assay of C. albicans biofilm; type: cell-based, Candida albicans; details: for Absorbance at 492 nm, Mean (XTT) / XTT result, Mean (MeOH control = 1): C. albicans biofilm; for Absorbance at 492 nm, Mean (XTT): test compound 100 μM, 24 hr, MeOH control 0.647, untreated 0.851; for effectiveness against fungal biofilms formed by Candida albicans (in words): summary statement
Protocol: C. albicans strain SC5314 was sub-cultured from 15% (v/v) glycerol stocks at −80° C. onto Yeast Peptone Dextrose (YPD) medium [1% (w/v) yeast extract, 2% (w/v) peptone and 2% (w/v) dextrose] and incubated at 30° C. overnight.
The test compounds in desiccated form were re-suspended in Methanol to create a 10 mM stock. […]
The ability of some of the compounds detailed in example 1 to disrupt Candida albicans was tested using Confocal Scanning Laser Microscopy and an XTT Metabolic Assay. The XTT assay is a commonly used quantitative method assessing Candida biofilm mass and growth often in response to novel drug therapies.
C. albicans biofilm formation was carried out in 96 well plates by a method of the prior art. Briefly, C. albicans was inoculated into Yeast Nitrogen Base [10% (w/v)] and glucose/maltose [10% (w/v)] and incubated overnight at 30° C. Seeding densities for all subsequent experiments (N=3) were OD600=0.05. Cells were grown in Yeast Nitrogen Base supplemented with 1 M Phosphate buffer and acetyl-D-glucosamine (YNB-NP) along with appropriate volumes of test compound to provide the desired concentration. Cells were cultured in 96 well plates for 1 hr at 37° C. to facilitate yeast attachment. After this incubation, the supernatants were aspirated, the wells washed twice with YNB-NP media, and fresh media with the same concentration of test compound added to the appropriate wells. The plate was incubated for 24 hr at 37° C. The next day, the cultures were aspirated and the wells washed once with YNB-NP media.
C. albicans biofilm quantification was carried out in 96 well plates using a semi-quantitative Tetrazolium salt, 2,3-bis-(2-methoxy-4-nitro-5-sulfophenyl)-2H tetrazolium-5-carboxanilide inner salt (XTT) reduction assay (Hawser, Tunney et al, Antimicrob Agents Chemother. 2004 May; 48(5):1879-81). XTT (0.01 g) was dissolved in sterile water (20 ml) and filter sterilized. 10 μl of Menadione dissolved in Acetone was added to the XTT solution, just before use. The XTT-Menadione Solution (100 μl) was added to each well. The plate was incubated in the dark at 37° C. for up to 2 hr to allow for colour development. The OD492 nm was recorded for each well. Experiments were repeated at least three times, with at least eight technical replicates.
Experiments were first carried out using the test compound at concentration of 100 μM.

[2] = tested on: Pseudomonus aeruginosa; assay: Virulence of Pseudomonas aeruginosa (summary statement); type: cell-based; details: unlike HHQ and PQS
Protocol: The virulence of compounds B1, B2, C2, C3, C4, C5, C6, C8 and C11 towards P. aeruginosa was assessed using the following method:
P. aeruginosa strains were cultured as described above for 24 hr, with the addition of test compounds (10 μM). Cultures were centrifuged at 4000 rpm for 10 minutes and the cell free supernatant (5 ml) removed. Chloroform (3 ml) was added, and mixed by vortex. After centrifugation at 4000 rpm for 5 mins, the lower aqueous phase was transferred to 0.2 M HCl (2 ml). Samples were mixed by vortex and centrifuged at 4000 rpm for 5 mins to separate the phases. An aliquot of the top phase (1 ml) was removed and spectrophotmetrically analysed at OD570 nm. Phenazine production was calculated using the following formula: OD570 nm×2×17.072 and the units expressed in μg/ml. […]

[3] = tested on: mammalian cells; assay: Cytotoxicity towards mammalian cells (summary statement); type: cell-based
Protocol: (§1) Lactate dehydrogenase (LDH) release from IB3 lung epithelial cells was assayed as a measure of cytotoxicity using an LDH colorimetric kit (Roche) according to manufacturers' instructions. Briefly, IB3-1 cells were seeded onto 96 well plates and treated with methanol (control) and test compounds (100 μM). Following 16 hr incubation at 37° C. and 5% CO2, supernatants were removed and added to catalyst reaction mixture in a fresh plate and further incubated at 37° C. and 5% CO2 for 30 mins to allow for colour development. After this period, the plate was analysed on an ELISA plate reader at OD490 nm. Cytotoxicity was expressed as a percentage of cells treated with 0.1% (v/v) Triton (100% cytotoxicity). The results are detailed in table 3:
The above experiments were repeated, testing some compounds against further cell lines (A549, DU145 and HeLa).

[4] = tested on: P. aeruginosa PAO1 pqsA-pqsA-lacZ strain; assay: Phenazine extraction (phenazine production); type: cell-based; details: PAO1 pqsA-pqsA-lacZ strain, test compounds 10 μM, 24 hr; methanol control 0.080
Protocol: P. aeruginosa strains, PAO1 and pqsA mutant, containing the chromosomally inserted pqsA-lacZ promoter fusion on plasmid pUC18-mini-Tn7, were sub-cultured from glycerol stocks onto LB agar plates, supplemented with Carbenicillin (200 μg/ml) and X-gal (40 μg/ml), and incubated at 37° C. overnight. Single colonies were inoculated into LB broth (20 ml), supplemented with Carbenicillin (200 μg/ml), and incubated at 37° C., shaking at 180 rpm overnight. For subsequent experiments, the OD600 nm was recorded and a starting OD600 nm of 0.02 was inoculated into fresh LB broth, supplemented with Carbenicillin (200 μg/ml) and incubated at 37° C., shaking at 180 rpm.
P. aeruginosa strains were cultured as described above for 24 hr, with the addition of test compounds (10 μM). Cultures were centrifuged at 4000 rpm for 10 minutes and the cell free supernatant (5 ml) removed. Chloroform (3 ml) was added, and mixed by vortex. After centrifugation at 4000 rpm for 5 mins, the lower aqueous phase was transferred to 0.2 M HCl (2 ml). Samples were mixed by vortex and centrifuged at 4000 rpm for 5 mins to separate the phases. An aliquot of the top phase (1 ml) was removed and spectrophotmetrically analysed at OD570 nm. Phenazine production was calculated using the following formula: OD570 nm×2×17.072 and the units expressed in μg/ml.
The phenazine production levels and Miller units in the PAO1 pqsA-pqsA-lacZ strain are detailed in table 5.
The virulence of compounds B2, C13 and C15 towards P. aeruginosa was assessed using an analogous method.

[5] = tested on: IB3 lung epithelial cells; assay: LDH release cytotoxicity, IB3-1 cells; type: cell-based; details: 100 μM, 16 hr, percentage of 0.1% Triton (100% cytotoxicity), MeOH 3.844
Protocol: as §1, with “cytotoxicity).” for “cytotoxicity). The results are detailed in table 3:”

| SMILES | Absorbance at 492 nm, Mean (XTT) [1] | effectiveness against fungal biofilms formed by Candida albicans (in words) [1] | effect on virulence of Pseudomonus aeruginosa (in words) [2] | cytotoxicity towards mammalian cells (in words) [3] | Phenazine, Mean [4] | % Cytotoxicity, Mean (LDH release) [5] | XTT result, Mean (MeOH control = 1) ([1]; 10 μM) | XTT result, Mean (MeOH control = 1) ([1]; 50 μM) | XTT result, Mean (MeOH control = 1) ([1]; 100 μM) |
| --- | --- | --- | --- | --- | --- | --- | --- | --- | --- |
| CCCCCCCc1cc(=O)c2cccc(Cl)c2[nH]1 [Compound C5] | 0.242 | effective | do not increase the virulence | reduced cytotoxicity | 0 µg/mL | 31.04% | – | – | – |
| CCCCCCCc1cc(=O)c2cc(Cl)ccc2[nH]1 [Compound C4] | 0.302 | effective | do not increase the virulence | reduced cytotoxicity | 0 µg/mL | 15.46% | 0.86 | 0.67 | 0.58 |
| CCCCCCCc1nc2ccccc2c(=O)n1N [Compound C2] | 0.178 | effective | do not increase the virulence | reduced cytotoxicity | 0.541 µg/mL | 28.94% | 0.68 | 0.38 | 0.25 |
